Experimental data reported in patent US20240108641A1, “COMPOSITIONS FOR ORAL ADMINISTRATION OF ZOLEDRONIC ACID OR RELATED COMPOUNDS FOR TREATING DISEASE” (ANTECIP BIOVENTURES II LLC, priority 2012, published 2024).

Legend:
[1] = assay type: physicochemical; conditions: pH 5.5
Procedure: One gram of the test compound was measured into a beaker. […] The procedure was continued until complete dissolution was achieved. […] The procedure was performed for each compound.

in vivo = conditions: dog, po, 150 mg
Procedure: Tablets were manufactured containing either pure zoledronic acid or the disodium salt of zoledronic acid (disodium zoledronate tetrahydrate). Both types of tablets contained 50 mg of zoledronic acid equivalent per tablet. Identical excipients were used in both types of tablets, with amounts adjusted to account for the difference in molecular weights between the acid and the disodium salt.
Beagle dogs were orally administered tablets containing 150 mg zoledronic acid equivalent either in the form of disodium zoledronate (Group 1) or pure zoledronic acid (Group 2). Each animal was given three 50 mg equivalent tablets (150 mg total), which were administered together. The animal's oral cavity was wetted with water before placing the tablets on the back of the animal's tongue. Animals were fasted before and after dosing. Animals were 6 to 9 months of age and weighed 6 to 10 kg on the day of dosing. There were three dogs per group.
Serial blood samples were collected from each animal by venipuncture of the jugular vein at various points after dosing for measurement of plasma concentrations of zoledronic acid. Blood samples were collected into chilled tubes containing K2EDTA as the anticoagulant. Samples were then centrifuged at approximately 3000 rpm at +4° C. for 10 minutes for plasma derivation. Plasma concentrations of zoledronic acid were measured using an LC/MS/MS method.

O.O.O.O.O=P([O-])(O)C(O)(Cn1ccnc1)P(=O)([O-])O.[Na+].[Na+] [disodium zoledronate tetrahydrate]
aqueous solubility relative to zoledronic acid [1]: approximately 50 times
average AUC0-∞ (in vivo): 4073 ng·h/mL
